# Laboratory results reported in ChEMBL document CHEMBL1201862, “PubChem BioAssay data set” (2004).
# The source made the active and inactive calls.
# How the values were obtained:
# [1] = molecular target: T1, Heat shock factor protein 1 (Mus musculus, UniProt P38532); assay: inhibition of MG132-induced HSE-luciferase signal, confirmation, cell-based, NIH3T3, luminescence, dose retest (AID 2382); format: functional;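 also: NIH3T3 fibroblasts with HSF1-driven luciferase reporter stressed by proteasome inhibitor MG132; luminescence from HSF1-driven luciferase expression after 8 hours of MG132 stress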
# T1 sequence (P38532 whole entry): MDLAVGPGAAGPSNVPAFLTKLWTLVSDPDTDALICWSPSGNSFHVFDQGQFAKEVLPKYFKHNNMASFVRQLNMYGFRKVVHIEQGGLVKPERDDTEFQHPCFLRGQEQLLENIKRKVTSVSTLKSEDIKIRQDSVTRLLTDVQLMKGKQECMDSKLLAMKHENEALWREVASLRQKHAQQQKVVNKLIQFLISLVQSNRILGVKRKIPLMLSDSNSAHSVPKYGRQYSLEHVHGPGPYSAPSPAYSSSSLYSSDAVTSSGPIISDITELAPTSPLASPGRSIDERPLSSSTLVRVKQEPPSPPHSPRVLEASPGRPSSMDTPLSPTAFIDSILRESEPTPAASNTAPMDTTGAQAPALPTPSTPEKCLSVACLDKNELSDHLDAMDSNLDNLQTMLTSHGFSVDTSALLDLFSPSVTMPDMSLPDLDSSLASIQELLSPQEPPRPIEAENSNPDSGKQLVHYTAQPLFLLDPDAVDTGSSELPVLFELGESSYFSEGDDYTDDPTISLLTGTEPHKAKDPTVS
# Cytochrome P450 2D6 = Cytochrome P450 2D6 (Homo sapiens, UniProt P10635);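 also: CYP2D6 member of a cytochrome P450 panel assay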
# Cytochrome P450 1A2 = molecular target: T2, Cytochrome P450 1A2 (Homo sapiens, UniProt P05177);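 also: PubChem cytochrome P450 panel assay, CYP1A2 panel member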
# T2 sequence (P05177 whole entry): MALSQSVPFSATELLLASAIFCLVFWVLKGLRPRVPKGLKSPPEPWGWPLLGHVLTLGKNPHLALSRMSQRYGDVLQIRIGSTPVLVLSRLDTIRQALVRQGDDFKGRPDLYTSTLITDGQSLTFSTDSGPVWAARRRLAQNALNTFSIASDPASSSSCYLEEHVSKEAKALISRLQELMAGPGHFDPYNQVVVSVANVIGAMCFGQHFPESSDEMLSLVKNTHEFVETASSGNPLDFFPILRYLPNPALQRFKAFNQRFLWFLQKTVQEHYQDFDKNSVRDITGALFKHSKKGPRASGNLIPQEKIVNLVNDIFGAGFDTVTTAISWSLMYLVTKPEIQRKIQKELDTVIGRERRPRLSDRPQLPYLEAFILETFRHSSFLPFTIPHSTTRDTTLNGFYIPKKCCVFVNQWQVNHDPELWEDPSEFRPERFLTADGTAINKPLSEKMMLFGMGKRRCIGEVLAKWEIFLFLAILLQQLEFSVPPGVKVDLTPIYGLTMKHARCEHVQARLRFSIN
# Cytochrome P450 2C19 = Cytochrome P450 2C19 (Homo sapiens, UniProt P33261); assay: Cytochrome panel assay with activity outcomes. Panel member name: p450-cyp2c19 Compounds with AC50 equal or less than 10 uM are considered active; format: functional; conditions: read-out: AC50
# Cytochrome P450 3A4 = Cytochrome P450 3A4 (Homo sapiens, UniProt P08684);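 also: CYP3A4 tested as one member of a cytochrome P450 panel screen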
# [2] = molecular target: T3, Replicative DNA helicase DnaB (Mycobacterium tuberculosis, UniProt P9WMR3); assay: DnaB intein splicing inhibitors, dose response, biochemical, cell-free fluorescence (AID 449749); format: functional
# T3 sequence (P9WMR3 whole entry): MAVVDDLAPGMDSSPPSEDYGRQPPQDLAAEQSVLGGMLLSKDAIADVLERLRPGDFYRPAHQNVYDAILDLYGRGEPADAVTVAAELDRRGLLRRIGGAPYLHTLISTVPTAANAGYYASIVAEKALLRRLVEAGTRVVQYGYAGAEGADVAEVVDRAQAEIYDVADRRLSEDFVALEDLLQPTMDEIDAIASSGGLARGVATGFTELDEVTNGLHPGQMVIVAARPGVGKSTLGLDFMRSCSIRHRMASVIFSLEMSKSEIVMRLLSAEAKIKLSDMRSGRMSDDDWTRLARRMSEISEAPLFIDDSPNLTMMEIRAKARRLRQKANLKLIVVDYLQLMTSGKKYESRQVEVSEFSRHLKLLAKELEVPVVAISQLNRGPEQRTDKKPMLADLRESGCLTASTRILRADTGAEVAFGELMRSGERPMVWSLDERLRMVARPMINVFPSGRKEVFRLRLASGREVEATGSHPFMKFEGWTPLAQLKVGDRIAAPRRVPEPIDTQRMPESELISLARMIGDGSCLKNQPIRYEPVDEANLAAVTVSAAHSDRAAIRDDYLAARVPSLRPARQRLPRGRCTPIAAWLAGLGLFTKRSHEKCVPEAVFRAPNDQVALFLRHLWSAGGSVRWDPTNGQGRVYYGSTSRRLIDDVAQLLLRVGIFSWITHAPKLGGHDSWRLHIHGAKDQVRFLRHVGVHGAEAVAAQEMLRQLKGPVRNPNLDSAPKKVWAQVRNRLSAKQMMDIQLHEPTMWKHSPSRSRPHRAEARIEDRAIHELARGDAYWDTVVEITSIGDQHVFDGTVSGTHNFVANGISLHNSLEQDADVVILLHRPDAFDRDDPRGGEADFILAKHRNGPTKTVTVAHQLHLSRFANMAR
# Protein RecA = molecular target: T4, Protein RecA (Mycobacterium tuberculosis, UniProt P9WHJ3); assay: Fluorescence Cell-Free Homogeneous Dose Retest to Identify Inhibitors of RecA-Intein Splicing Activity. [Related pubchem assays (depositor defined):AID2097, AID2223, AID489010, AID492950]; format: functional
# T4 sequence (P9WHJ3 whole entry): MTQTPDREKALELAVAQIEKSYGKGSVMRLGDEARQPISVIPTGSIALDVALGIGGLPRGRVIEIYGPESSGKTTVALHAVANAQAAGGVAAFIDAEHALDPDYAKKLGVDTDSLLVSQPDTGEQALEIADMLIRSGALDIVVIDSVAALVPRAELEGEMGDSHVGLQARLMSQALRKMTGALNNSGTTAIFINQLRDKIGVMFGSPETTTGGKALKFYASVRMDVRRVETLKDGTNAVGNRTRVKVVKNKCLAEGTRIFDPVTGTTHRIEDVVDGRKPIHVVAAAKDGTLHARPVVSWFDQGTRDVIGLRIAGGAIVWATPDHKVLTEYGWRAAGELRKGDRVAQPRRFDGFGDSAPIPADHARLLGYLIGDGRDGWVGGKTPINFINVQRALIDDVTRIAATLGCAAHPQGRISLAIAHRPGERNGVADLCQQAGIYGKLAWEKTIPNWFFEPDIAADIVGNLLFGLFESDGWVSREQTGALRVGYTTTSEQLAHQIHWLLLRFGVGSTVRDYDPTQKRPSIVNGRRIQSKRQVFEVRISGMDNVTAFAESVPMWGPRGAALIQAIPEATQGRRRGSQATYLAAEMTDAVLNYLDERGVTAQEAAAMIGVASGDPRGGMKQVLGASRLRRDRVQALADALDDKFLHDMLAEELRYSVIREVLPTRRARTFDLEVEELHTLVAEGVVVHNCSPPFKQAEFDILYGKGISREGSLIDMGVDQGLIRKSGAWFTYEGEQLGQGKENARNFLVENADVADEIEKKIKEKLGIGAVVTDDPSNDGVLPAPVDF
# Cytochrome P450 2C9 = Cytochrome P450 2C9 (Homo sapiens, UniProt P11712)
# Chain of Cytochrome P450 2C9 (P11712 whole entry): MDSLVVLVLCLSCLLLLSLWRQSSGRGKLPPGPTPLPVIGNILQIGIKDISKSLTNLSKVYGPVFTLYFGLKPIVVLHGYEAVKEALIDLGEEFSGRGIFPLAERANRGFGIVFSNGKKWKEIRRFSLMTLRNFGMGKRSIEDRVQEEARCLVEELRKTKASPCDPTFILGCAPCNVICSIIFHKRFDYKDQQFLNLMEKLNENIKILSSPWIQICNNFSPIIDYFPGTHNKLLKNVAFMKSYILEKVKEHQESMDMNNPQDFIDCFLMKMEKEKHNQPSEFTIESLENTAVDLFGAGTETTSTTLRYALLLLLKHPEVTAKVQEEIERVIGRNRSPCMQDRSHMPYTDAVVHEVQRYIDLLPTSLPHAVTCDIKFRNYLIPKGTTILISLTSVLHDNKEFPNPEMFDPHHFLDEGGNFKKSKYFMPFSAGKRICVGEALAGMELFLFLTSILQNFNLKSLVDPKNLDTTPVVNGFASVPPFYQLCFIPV
# Chain of Cytochrome P450 2D6 (P10635 whole entry): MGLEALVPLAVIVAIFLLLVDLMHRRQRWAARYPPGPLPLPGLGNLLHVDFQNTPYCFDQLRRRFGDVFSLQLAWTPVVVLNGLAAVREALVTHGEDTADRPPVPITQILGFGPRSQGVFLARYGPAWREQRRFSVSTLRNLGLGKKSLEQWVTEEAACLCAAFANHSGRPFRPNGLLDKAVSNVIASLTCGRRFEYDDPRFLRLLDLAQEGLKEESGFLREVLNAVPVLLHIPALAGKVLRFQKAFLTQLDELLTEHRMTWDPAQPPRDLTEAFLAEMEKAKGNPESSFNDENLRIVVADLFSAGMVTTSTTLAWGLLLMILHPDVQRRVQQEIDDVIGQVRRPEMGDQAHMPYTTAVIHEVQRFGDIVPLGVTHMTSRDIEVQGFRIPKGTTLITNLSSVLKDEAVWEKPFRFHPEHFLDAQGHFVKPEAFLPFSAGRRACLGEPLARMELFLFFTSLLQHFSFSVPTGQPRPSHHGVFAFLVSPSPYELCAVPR
# Chain of Cytochrome P450 3A4 (P08684 whole entry): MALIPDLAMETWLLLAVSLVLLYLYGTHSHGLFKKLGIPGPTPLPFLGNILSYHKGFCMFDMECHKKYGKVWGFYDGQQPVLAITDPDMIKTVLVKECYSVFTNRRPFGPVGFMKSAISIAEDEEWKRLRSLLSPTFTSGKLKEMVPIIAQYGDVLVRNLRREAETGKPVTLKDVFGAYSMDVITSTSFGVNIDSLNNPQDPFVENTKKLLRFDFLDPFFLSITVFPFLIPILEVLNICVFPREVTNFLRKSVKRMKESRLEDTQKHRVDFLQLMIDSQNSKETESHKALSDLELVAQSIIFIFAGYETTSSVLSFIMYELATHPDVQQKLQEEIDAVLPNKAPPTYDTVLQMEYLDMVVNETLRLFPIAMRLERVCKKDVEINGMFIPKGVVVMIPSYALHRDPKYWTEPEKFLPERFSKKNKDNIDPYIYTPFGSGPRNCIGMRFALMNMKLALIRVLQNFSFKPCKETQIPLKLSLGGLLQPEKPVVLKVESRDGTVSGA
# Chain of Cytochrome P450 2C19 (P33261 whole entry): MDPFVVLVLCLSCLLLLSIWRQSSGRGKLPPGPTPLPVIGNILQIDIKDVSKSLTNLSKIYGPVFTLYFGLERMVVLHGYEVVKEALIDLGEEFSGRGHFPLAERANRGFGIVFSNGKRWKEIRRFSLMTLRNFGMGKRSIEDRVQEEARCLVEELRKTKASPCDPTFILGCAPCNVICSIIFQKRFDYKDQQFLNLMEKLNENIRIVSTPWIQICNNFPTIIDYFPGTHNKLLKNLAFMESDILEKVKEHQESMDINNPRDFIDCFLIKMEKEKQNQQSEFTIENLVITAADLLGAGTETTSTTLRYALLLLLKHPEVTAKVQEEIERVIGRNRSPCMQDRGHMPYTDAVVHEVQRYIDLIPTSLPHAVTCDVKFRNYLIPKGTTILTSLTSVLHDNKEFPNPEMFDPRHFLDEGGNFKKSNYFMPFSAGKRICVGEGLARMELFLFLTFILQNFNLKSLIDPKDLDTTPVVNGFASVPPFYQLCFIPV
smiles,measurement,setting,value
COc1ccccc1CCC(=O)OCC(=O)Nc1cccc(S(=O)(=O)N2CCOCC2)c1,EC50,[1],> 195 µM (not active)
CCN(CC)CCNCc1cc(Cl)ccc1OCc1ccccc1F,EC50,[1],> 195 µM (not active)
COc1ccc(-c2cc(C(=O)Nc3ccc(S(N)(=O)=O)cc3)c3ccccc3n2)cc1OC,EC50,[1],> 195 µM (not active)
COc1cccc(-c2c(NC(C)=O)n(C)c3ccccc3c2=O)c1,EC50,[1],> 195 µM (not active)
Cc1cccc(OCC(=O)Nc2cccc(C(=O)NCC(C)C)c2)c1,EC50,[1],> 195 µM (not active)
O=C(CSc1ccc(-c2ccccn2)nn1)NC1CCCCC1,EC50,[1],> 195 µM (not active)
COc1ccc(-n2c(=O)c(-c3ccc(Cl)cc3)nc3cnc(N(C)C)nc32)cc1,AC50,Cytochrome P450 2D6,2.51 µM (inconclusive)
same,AC50,Cytochrome P450 1A2,10 µM (inconclusive)
Cc1cc(C(=O)CSc2ccc(F)cc2)cc(C)c1OC(=S)N(C)C,EC50,[1],< 0.16 µM (active)
COc1ccc(CCNC(=O)Cc2nn(C)c(=O)c3ccccc23)cc1OC,EC50,[1],> 195 µM (not active)
CN1CCc2c(sc3c2c(=O)n(-c2ccc(Cl)cc2)c2nncn32)C1,EC50,[1],> 195 µM (not active)
CC(C)=CCN1CCN(Cc2cc(F)ccc2-n2nc(C)cc2C)CC1CCO (centres undefined),EC50,[1],> 195 µM (not active)
CCOC(=O)c1ccc(N/C=C/C(=O)c2ccc(OC)cc2)cc1,AC50,Cytochrome P450 2C19,2.82 µM (inconclusive)
same,AC50,Cytochrome P450 3A4,6.31 µM (inconclusive)
same,AC50,Cytochrome P450 1A2,22.4 µM (inconclusive)
same,EC50,[1],> 195 µM (not active)
CCC(C)[C@H](NC(=O)NC1CCN(Cc2ccccc2)CC1)C(=O)OC (some centres undefined),AC50,[2],39.9 µM (active)
same,EC50,Protein RecA,2.96 µM (active)
same,AC50,Cytochrome P450 2D6,28.2 µM (inconclusive)
same,AC50,Cytochrome P450 2C9,2.24 µM (inconclusive)
c1cnc2ccc(C(c3nnnn3C3CCCC3)N3CCN4CCCC4C3)cc2c1 (centres undefined),AC50,Cytochrome P450 2D6,22.4 µM (inconclusive)
same,AC50,Cytochrome P450 2C19,25.1 µM (inconclusive)
same,AC50,Cytochrome P450 2C9,14.1 µM (inconclusive)
same,AC50,Cytochrome P450 3A4,6.31 µM (inconclusive)
